Source: PubChem BioAssay (NCI)
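In this assay, cells in 96-well plates receive the compound at five concentrations for 48 hours. Endpoints are linearly interpolated between the surrounding concentrations. TGI: concentration producing complete growth inhibition.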

Experiments:
Experiment in all cases: NCI anticancer screen, dose series, 48 h
[1] = tested on: UO-31 renal
[2] = tested on: M14 melanoma
[3] = tested on: HT29 colon
[4] = tested on: CAKI-1 renal
[5] = tested on: NCI-H23 lung
[6] = tested on: SK-OV-3 ovarian
[7] = tested on: SW-620 colon
[8] = tested on: A549 NSCLC
[9] = tested on: MALME-3M melanoma
[10] = tested on: OVCAR-5 ovarian
[11] = tested on: SK-MEL-28 melanoma
[12] = tested on: SF-539 CNS
[13] = tested on: A498 renal
[14] = tested on: SF-268 CNS
[15] = tested on: SN12C renal
[16] = tested on: RPMI-8226 leukemia
[17] = tested on: UACC-257 melanoma
[18] = tested on: SK-MEL-2 melanoma
[19] = tested on: K-562 leukemia
[20] = tested on: NCI-H226 lung
[21] = tested on: OVCAR-4 ovarian
[22] = tested on: TK-10 renal
[23] = tested on: UACC-62 melanoma
[24] = tested on: RXF 393 renal
[25] = tested on: OVCAR-3 ovarian
[26] = tested on: HOP-92 NSCLC
[27] = tested on: NCI-H522 lung
[28] = tested on: NCI-H460 lung
[29] = tested on: SNB-19 CNS
[30] = tested on: ACHN renal
[31] = tested on: COLO 205 colon
[32] = tested on: M19-MEL melanoma
[33] = tested on: EKVX NSCLC
[34] = tested on: CCRF-CEM leukemia
[35] = tested on: DLD-1 colon
[36] = tested on: 786-0 renal
[37] = tested on: HCT-15 colon
[38] = tested on: LXFL 529 NSCLC
[39] = tested on: HCT-116 colon
[40] = tested on: XF 498 CNS
[41] = tested on: SNB-75 CNS
[42] = tested on: HOP-18 NSCLC
[43] = tested on: DMS 114 small cell lung
[44] = tested on: U251 CNS
[45] = tested on: IGROV1 ovarian
[46] = tested on: KM12 colon
[47] = tested on: MOLT-4 leukemia
[48] = tested on: LOX IMVI melanoma
[49] = tested on: SK-MEL-5 melanoma
[50] = tested on: KM20L2 colon
[51] = tested on: DMS 273 small cell lung
[52] = tested on: SNB-78 CNS
[53] = tested on: OVCAR-8 ovarian
[54] = tested on: SF-295 CNS
[55] = tested on: HCC-2998 colon
[56] = tested on: HOP-62 NSCLC
[57] = tested on: RXF-631 renal

In the case of `COc1ccccc1/C=C(\NC(=O)c1ccccc1)c1nc2ccc(Cl)cc2[nH]1`, the TGI [1] is reported as 46.6 µM, the TGI [2] is reported as greater than 100 µM and the TGI [3] is reported as greater than 100 µM. It also gave a TGI [4] of 74.4 µM, a TGI [5] of 69.3 µM and a TGI [6] of 84 µM. It also gave a TGI [7] greater than 100 µM, a TGI [8] of 70.2 µM and a TGI [9] greater than 100 µM. The TGI [10] was greater than 100 µM, the TGI [11] was greater than 100 µM and the TGI [12] was greater than 100 µM. For the same compound, the TGI [13] was 80.9 µM, the TGI [14] was greater than 100 µM and the TGI [15] was greater than 100 µM. The TGI [16] was 38.5 µM, the TGI [17] was greater than 100 µM and the TGI [18] was 65.7 µM. The TGI [19] was greater than 100 µM, the TGI [20] was 58 µM and the TGI [21] was greater than 100 µM. The TGI [22] was 73.7 µM, the TGI [23] was 55.3 µM and the TGI [24] was greater than 100 µM. The TGI [25] was 49.6 µM, the TGI [26] was 56.8 µM and the TGI [27] was 49.5 µM. The TGI [28] was greater than 100 µM, the TGI [29] was greater than 100 µM and the TGI [30] was 67.8 µM. The TGI [31] was 38.8 µM, the TGI [32] was greater than 100 µM and the TGI [33] was 78.7 µM. For the same compound, the TGI [34] was greater than 100 µM, the TGI [35] was 88.9 µM and the TGI [36] was 87.1 µM. The TGI [37] was greater than 100 µM, the TGI [38] was 62.9 µM and the TGI [39] was greater than 100 µM. It also gave a TGI [40] of 89.5 µM, a TGI [41] of 70.7 µM and a TGI [42] of 82.6 µM. For the same compound, the TGI [43] was 52.7 µM, the TGI [44] was greater than 100 µM and the TGI [45] was greater than 100 µM. The TGI [46] was greater than 100 µM, the TGI [47] was 54.9 µM and the TGI [48] was greater than 100 µM. The TGI [49] was 33.7 µM, the TGI [50] was greater than 100 µM and the TGI [51] was greater than 100 µM. It also gave a TGI [52] greater than 100 µM and a TGI [53] of 73 µM.
For `Cc1ccc(-n2nc(C(OC3OC(CO)C(O)C(O)C3O)C(O)CO)c3nc4cc(C)c(C)cc4nc32)cc1` (centres undefined), the TGI [1] was greater than 100 µM, the TGI [2] was greater than 100 µM and the TGI [3] was greater than 100 µM. It also gave a TGI [5] greater than 100 µM, a TGI [6] greater than 100 µM and a TGI [9] greater than 100 µM. It also gave a TGI [10] greater than 100 µM, a TGI [11] greater than 100 µM and a TGI [12] greater than 100 µM. The TGI [13] was greater than 100 µM, the TGI [14] was greater than 100 µM and the TGI [15] was greater than 100 µM. The TGI [16] was greater than 100 µM, the TGI [17] was greater than 100 µM and the TGI [54] was greater than 100 µM. The TGI [19] was greater than 100 µM, the TGI [55] was greater than 100 µM and the TGI [21] was greater than 100 µM. For the same compound, the TGI [22] was greater than 100 µM, the TGI [23] was greater than 100 µM and the TGI [24] was greater than 100 µM. It also gave a TGI [25] greater than 100 µM, a TGI [27] greater than 100 µM and a TGI [28] greater than 100 µM. The TGI [29] was greater than 100 µM, the TGI [30] was greater than 100 µM and the TGI [32] was greater than 100 µM. For the same compound, the TGI [33] was greater than 100 µM, the TGI [34] was greater than 100 µM and the TGI [35] was greater than 100 µM. The TGI [36] was greater than 100 µM, the TGI [37] was greater than 100 µM and the TGI [38] was greater than 100 µM. It also gave a TGI [39] greater than 100 µM, a TGI [40] greater than 100 µM and a TGI [41] greater than 100 µM. For the same compound, the TGI [43] was greater than 100 µM, the TGI [56] was greater than 100 µM and the TGI [44] was greater than 100 µM. For the same compound, the TGI [46] was greater than 100 µM, the TGI [47] was greater than 100 µM and the TGI [57] was greater than 100 µM. For the same compound, the TGI [48] was greater than 100 µM, the TGI [50] was greater than 100 µM and the TGI [52] was greater than 100 µM. It also gave a TGI [53] greater than 100 µM.
